Tests used:
Assay in all cases: KINOMEscan competition binding
Conditions in all cases: compound 10.0 µM
[1] = target: MAPK3 (human) (UniProt P27361)
[2] = target: PRKG1 (human) (UniProt Q13976)
[3] = target: TAOK3 (human) (UniProt Q9H2K8)
[4] = target: ULK3 (human) (UniProt Q6PHR2)
[5] = target: EPHA8 (human) (UniProt P29322)
[6] = target: MAK (human) (UniProt P20794)
[7] = target: PTK2B (human) (UniProt Q14289)
[8] = target: CLK3 (human) (UniProt P49761)
[9] = target: SRMS (human) (UniProt Q9H3Y6)
[10] = target: MAP4K5 (human) (UniProt Q9Y4K4)
[11] = target: MAPK15 (human) (UniProt Q8TD08)
[12] = target: PIP5K1C (human) (UniProt O60331)
[13] = target: CIT (human) (UniProt O14578)
[14] = target: MKNK2 (human) (UniProt Q9HBH9)
[15] = target: SGK110 (human) (UniProt P0C264)
[16] = target: TIE1 (human) (UniProt P35590)
[17] = target: LATS2 (human) (UniProt Q9NRM7)
[18] = target: PAK4 (human) (UniProt O96013)
[19] = target: NUAK2 (human) (UniProt Q9H093)
[20] = target: PAK3 (human) (UniProt O75914)
[21] = target: ULK2 (human) (UniProt Q8IYT8)
[22] = target: AKT2 (human) (UniProt P31751)
[23] = target: TLK2 (human) (UniProt Q86UE8)
[24] = target: MAST1 (human) (UniProt Q9Y2H9)
[25] = target: FLT1 (human) (UniProt P17948)
[26] = target: ADCK3 (human) (UniProt Q8NI60)
[27] = target: SNRK (human) (UniProt Q9NRH2)
[28] = target: PRKCE (human) (UniProt Q02156)
[29] = target: PRPF4B (human) (UniProt Q13523)
[30] = target: ACVRL1 (human) (UniProt P37023)
[31] = target: GRK7 (human) (UniProt Q8WTQ7)
[32] = target: MAP3K15 (human) (UniProt Q6ZN16)
[33] = target: PDGFRA (human) (UniProt P16234)
[34] = target: BTK (human) (UniProt Q06187)
[35] = target: CAMK2G (human) (UniProt Q13555)
[36] = target: PAK7 (human) (UniProt Q9P286)
[37] = target: MAPK12 (human) (UniProt P53778)
[38] = target: CAMK1G (human) (UniProt Q96NX5)
[39] = target: PRKD3 (human) (UniProt O94806)
[40] = test system: FLT3 (human), P36888 [R834Q]
[41] = target: CDKL3 (human) (UniProt Q8IVW4)

MAST1 (human), sequence (Q9Y2H9 whole entry, looked up): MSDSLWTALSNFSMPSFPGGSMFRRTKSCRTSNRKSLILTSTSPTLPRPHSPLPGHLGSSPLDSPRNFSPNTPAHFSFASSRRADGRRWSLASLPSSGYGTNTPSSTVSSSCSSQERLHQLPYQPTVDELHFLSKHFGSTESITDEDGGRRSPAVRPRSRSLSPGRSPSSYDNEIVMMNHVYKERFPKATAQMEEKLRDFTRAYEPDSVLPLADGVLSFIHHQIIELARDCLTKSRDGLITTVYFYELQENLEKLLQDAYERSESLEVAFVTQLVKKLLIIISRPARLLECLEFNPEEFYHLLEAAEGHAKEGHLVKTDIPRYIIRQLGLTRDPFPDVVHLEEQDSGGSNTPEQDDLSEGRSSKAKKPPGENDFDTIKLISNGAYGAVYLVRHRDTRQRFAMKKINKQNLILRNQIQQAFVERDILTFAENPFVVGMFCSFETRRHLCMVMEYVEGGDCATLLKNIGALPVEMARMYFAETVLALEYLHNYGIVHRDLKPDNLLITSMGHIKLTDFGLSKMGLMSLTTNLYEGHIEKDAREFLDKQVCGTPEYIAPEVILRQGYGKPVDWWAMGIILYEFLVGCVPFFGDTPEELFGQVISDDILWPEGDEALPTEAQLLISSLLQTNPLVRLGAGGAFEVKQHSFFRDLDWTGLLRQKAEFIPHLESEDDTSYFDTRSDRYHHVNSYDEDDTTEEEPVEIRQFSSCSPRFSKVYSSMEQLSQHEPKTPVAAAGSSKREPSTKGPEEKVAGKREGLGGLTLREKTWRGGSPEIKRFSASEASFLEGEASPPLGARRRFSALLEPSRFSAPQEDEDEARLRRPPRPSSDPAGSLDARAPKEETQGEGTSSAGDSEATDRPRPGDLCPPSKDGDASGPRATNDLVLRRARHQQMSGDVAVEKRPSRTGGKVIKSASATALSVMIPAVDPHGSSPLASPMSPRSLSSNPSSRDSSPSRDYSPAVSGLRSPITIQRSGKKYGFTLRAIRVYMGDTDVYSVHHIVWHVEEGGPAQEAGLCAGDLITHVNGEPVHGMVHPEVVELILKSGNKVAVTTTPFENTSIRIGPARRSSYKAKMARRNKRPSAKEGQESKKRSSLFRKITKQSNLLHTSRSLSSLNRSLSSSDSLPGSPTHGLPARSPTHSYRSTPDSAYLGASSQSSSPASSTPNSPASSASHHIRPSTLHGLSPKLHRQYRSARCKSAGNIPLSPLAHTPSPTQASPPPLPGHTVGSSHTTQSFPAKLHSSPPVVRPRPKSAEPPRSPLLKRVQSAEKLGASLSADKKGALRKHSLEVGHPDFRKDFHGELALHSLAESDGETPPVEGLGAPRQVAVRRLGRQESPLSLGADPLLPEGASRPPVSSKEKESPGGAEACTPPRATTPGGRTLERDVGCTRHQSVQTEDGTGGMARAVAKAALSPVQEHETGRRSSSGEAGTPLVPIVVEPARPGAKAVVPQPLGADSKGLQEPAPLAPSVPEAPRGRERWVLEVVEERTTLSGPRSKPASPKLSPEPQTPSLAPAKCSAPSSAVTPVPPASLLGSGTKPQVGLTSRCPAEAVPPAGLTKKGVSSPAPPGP
ACVRL1 (human), sequence (P37023 whole entry, looked up): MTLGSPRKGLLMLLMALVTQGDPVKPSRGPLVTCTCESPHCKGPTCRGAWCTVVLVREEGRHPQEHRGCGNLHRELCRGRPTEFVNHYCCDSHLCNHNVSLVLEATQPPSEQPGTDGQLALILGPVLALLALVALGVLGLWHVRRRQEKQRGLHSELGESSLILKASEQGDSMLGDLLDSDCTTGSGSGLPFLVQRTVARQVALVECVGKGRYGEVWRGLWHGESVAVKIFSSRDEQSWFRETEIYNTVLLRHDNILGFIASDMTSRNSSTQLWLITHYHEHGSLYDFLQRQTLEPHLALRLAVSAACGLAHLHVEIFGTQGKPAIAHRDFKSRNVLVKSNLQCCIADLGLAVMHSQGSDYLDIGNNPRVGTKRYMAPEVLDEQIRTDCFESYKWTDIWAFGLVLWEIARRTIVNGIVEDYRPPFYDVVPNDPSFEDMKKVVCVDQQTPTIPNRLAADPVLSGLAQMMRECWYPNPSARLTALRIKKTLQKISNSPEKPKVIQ
GRK7 (human), sequence (Q8WTQ7 whole entry, looked up): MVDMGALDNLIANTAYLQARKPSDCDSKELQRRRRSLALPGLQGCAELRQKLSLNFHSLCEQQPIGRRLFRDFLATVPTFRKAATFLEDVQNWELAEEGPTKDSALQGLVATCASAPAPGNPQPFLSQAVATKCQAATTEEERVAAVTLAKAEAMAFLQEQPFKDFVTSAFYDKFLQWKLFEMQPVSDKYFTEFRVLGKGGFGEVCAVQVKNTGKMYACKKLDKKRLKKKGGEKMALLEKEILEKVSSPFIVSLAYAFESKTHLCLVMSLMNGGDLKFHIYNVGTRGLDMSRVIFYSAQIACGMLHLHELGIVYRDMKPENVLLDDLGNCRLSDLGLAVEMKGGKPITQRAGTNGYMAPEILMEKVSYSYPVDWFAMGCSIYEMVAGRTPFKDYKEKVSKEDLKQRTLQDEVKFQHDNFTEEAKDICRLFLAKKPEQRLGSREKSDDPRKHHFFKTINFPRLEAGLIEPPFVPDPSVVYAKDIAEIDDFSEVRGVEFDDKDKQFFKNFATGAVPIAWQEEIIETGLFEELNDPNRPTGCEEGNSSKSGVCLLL
MKNK2 (human), sequence (Q9HBH9 whole entry, looked up): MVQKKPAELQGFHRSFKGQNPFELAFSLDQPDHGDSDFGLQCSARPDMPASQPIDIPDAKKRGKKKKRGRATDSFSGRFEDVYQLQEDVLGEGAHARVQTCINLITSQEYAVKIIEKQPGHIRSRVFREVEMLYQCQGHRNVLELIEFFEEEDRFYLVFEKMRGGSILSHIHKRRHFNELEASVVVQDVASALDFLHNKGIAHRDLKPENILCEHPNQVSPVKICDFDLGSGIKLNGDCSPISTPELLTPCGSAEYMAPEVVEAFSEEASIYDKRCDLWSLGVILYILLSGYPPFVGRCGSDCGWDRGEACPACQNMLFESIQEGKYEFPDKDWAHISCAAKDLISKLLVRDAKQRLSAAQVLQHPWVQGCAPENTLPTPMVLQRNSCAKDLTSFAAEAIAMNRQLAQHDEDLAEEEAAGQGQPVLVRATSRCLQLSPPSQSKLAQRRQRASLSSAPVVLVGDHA
CLK3 (human), sequence (P49761 whole entry, looked up): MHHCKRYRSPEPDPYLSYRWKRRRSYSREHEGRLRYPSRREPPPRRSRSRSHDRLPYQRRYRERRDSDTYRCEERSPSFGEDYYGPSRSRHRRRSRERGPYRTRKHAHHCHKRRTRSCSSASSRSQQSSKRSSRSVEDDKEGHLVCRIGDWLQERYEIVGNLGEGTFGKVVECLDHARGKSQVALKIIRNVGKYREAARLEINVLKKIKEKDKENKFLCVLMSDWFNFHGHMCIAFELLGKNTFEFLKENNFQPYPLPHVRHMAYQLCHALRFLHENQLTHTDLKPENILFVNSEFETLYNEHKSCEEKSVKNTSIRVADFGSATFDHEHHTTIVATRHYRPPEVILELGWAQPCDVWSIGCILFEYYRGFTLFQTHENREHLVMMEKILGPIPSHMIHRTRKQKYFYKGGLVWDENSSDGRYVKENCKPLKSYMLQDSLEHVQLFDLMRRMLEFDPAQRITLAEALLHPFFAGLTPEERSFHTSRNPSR
PRKG1 (human), sequence (Q13976 whole entry, looked up): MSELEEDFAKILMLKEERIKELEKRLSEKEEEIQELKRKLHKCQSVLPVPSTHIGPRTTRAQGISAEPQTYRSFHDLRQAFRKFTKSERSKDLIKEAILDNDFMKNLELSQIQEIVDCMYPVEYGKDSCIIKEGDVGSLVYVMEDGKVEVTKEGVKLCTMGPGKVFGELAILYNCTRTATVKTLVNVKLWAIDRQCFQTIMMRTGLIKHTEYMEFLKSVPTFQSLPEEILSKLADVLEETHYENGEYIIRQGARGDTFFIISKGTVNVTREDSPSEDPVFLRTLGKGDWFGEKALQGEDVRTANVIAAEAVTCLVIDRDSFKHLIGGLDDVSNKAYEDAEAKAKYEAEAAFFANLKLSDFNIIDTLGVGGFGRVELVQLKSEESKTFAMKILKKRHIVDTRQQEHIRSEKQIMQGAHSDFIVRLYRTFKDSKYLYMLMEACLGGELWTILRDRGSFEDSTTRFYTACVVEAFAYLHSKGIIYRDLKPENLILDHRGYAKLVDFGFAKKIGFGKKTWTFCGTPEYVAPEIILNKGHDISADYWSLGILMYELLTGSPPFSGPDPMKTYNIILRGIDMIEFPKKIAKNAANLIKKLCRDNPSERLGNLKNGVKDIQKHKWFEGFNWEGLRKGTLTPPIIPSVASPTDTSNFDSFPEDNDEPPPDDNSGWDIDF
ULK3 (human), sequence (Q6PHR2 whole entry, looked up): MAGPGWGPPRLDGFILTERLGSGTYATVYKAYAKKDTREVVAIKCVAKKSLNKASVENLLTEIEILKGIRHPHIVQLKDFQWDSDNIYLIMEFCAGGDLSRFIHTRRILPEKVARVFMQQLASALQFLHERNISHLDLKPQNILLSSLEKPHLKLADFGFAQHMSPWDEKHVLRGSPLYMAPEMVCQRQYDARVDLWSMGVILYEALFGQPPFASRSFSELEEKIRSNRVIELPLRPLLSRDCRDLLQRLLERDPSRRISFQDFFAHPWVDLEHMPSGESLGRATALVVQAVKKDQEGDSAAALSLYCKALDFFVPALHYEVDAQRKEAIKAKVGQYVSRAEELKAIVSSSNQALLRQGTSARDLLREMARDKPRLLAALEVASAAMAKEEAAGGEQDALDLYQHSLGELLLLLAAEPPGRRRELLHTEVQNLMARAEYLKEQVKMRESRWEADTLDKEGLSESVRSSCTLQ

`CCN1CCN(C(=O)Cc2ccc(Nc3ncc(F)c(Nc4ccc(C(=O)Nc5ccccc5Cl)cc4)n3)cc2)CC1` was tested, and the kinase still bound, per cent of control [1] was 100%, the kinase still bound, per cent of control [2] was 100% and the kinase still bound, per cent of control [3] was 69%. It also gave a kinase still bound, per cent of control [4] of 1.5%, a kinase still bound, per cent of control [5] of 63% and a kinase still bound, per cent of control [6] of 100%. For the same compound, the kinase still bound, per cent of control [7] was 33%, the kinase still bound, per cent of control [8] was 23% and the kinase still bound, per cent of control [9] was 58%. For the same compound, the kinase still bound, per cent of control [10] was 64%, the kinase still bound, per cent of control [11] was 54% and the kinase still bound, per cent of control [12] was 77%. It also gave a kinase still bound, per cent of control [13] of 27%, a kinase still bound, per cent of control [14] of 5.6% and a kinase still bound, per cent of control [15] of 40%. The kinase still bound, per cent of control [16] was 10%, the kinase still bound, per cent of control [17] was 100% and the kinase still bound, per cent of control [18] was 47%. For the same compound, the kinase still bound, per cent of control [19] was 23%, the kinase still bound, per cent of control [20] was 12% and the kinase still bound, per cent of control [21] was 77%. It also gave a kinase still bound, per cent of control [22] of 95%, a kinase still bound, per cent of control [23] of 33% and a kinase still bound, per cent of control [24] of 100%. For the same compound, the kinase still bound, per cent of control [25] was 9.6%, the kinase still bound, per cent of control [26] was 43% and the kinase still bound, per cent of control [27] was 89%. The kinase still bound, per cent of control [28] was 100%, the kinase still bound, per cent of control [29] was 18% and the kinase still bound, per cent of control [30] was 100%. It also gave a kinase still bound, per cent of control [31] of 71%, a kinase still bound, per cent of control [32] of 100% and a kinase still bound, per cent of control [33] of 38%. For the same compound, the kinase still bound, per cent of control [34] was 27%, the kinase still bound, per cent of control [35] was 55% and the kinase still bound, per cent of control [36] was 56%. For the same compound, the kinase still bound, per cent of control [37] was 100%, the kinase still bound, per cent of control [38] was 39% and the kinase still bound, per cent of control [39] was 100%. It also gave a kinase still bound, per cent of control [40] of 36% and a kinase still bound, per cent of control [41] of 89%.

Reference: the kinase profiling compilation of Christmann-Franck et al. (2016)
